Here are results for three compounds from patent US5753631A, “Intercellular adhesion mediators” (Cytel Corporation, priority 1995, dated 1998).

The test system of one test is selectin receptors. The note with it: Berg et al.; cited from earlier work.
The target of test [1] is T1, ELAM-1 (Homo sapiens, UniProt P16581).
T1 construct: adhesion of neutrophils (PMN)
T1 sequence (P16581 22-610): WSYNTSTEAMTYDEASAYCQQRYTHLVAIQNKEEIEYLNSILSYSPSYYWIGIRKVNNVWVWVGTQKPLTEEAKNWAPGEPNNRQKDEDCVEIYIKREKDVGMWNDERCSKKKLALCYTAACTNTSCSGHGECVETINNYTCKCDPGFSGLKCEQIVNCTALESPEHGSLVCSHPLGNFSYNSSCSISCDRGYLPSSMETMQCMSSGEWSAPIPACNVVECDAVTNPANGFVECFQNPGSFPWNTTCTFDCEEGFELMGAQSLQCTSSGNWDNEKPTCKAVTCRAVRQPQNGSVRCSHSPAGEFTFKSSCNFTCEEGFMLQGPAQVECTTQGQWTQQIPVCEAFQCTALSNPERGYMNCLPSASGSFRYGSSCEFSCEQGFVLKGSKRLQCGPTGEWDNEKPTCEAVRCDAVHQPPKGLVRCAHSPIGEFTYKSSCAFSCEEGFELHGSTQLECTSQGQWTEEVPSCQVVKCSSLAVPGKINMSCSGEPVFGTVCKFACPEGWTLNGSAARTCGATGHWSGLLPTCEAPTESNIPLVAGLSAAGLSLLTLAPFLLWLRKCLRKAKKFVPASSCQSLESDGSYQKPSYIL
Kind of test: Liposome inhibition of neutrophil (PMN) adhesion to IL-1 activated endothelium (HUVEC). Type of test: cell-based. The note with it: for inhibition of neutrophil adhesion to activated endothelium: E-Selectin dependent binding assay, liposomes. As to the method: Two synthetic compounds were prepared. One comprised sialic acid in an α2,3 linkage, as in naturally occurring SLe^x. The second comprised sialic acid in an α2,6 linkage, to examine the importance of the nature of the linkage to receptor binding.
Liposomes were prepared by adding 12 μl of absolute ethanol (ETOH) to each tube, warming briefly in a 50° C. water bath and sonicating for 2 min. 238 μl of warm phosphate buffered saline (PBS) was added slowly to each tube while sonicating and sonication was continued for a further 10 min. The final concentration of stock liposomes was 400 μg glycolipids/ml in 5% ETOH/PBS.
1. HUVECs, PMNs, and liposomes were prepared as described above.
2. The stimulated HUVEC assay plate was removed from the incubator and the wells were washed two times with RPMI 1640 containing 5 mg/ml bovine serum albumin (BSA).
3. Liposomes stocks were diluted in the HBSS/BSA buffer to make solutions equal to: 40 μg/ml, 30 μg/ml, 15 μg/ml, 7.5 μg/ml, 3.75 μg/ml and 1.87 μg/ml. Similar dilutions were prepared from a control stock consisting of PBS-5% ETOH.
4. The medium was removed from the wells of the assay plate with a pasteur pipette, a few wells at a time.
5. 0.05 ml of each liposome suspension was added to duplicate wells on the stimulated assay plate. Control wells received the liposome buffer containing ethanol HBSS and BSA at the same concentrations as in the liposome containing wells. Control buffer was plated on unstimulated and stimulated HUVEC. Liposome containing samples were added to stimulated wells only.
6. The plates were incubated for 40 min at 37° C. and then 50 μl of PMNs were added to the assay wells. The final concentration of cells was 5×10^5 well in 100 μl.
7. The assay plate was returned to the incubator (5% CO2, 37° C.) for 8 min.
8. Unbound cells were removed from the wells of the assay plates by systematic resuspension using a P200 multichannel pipette followed by addition and removal of 0.2 ml of medium.
9. All of the medium was removed from the wells and 50 μl of solubilization buffer was added. This consisted of citrate buffer (24.3 ml of 0.1M Citric acid, 10.5 g/500 ml+25.7 ml of 0.2M dibasic sodium phosphate, 14.2 g/500 ml and SQ H2 O to 100 ml) containing 0.1% NP-40 detergent.
10. The plate was incubated on a rotary shaker for 10 min and then 0.05 ml of OPDA solution [8 mg o-phenylene-diamine, Sigma cat# P-1526, 8 μl of 30% H2 O2 and 10 ml of citrate buffer (as above)] was added to each well. The reaction was allowed to develop for 15 min and then 25 μl of 4N H2 SO4 was added to each well to stop the reaction.
11. A reagent bulk was prepared by mixing 100 μl volumes of the solubilization buffer and the OPDA solution with 50 μl of 4N H2 SO4.
12. 100 μl of supernatant was removed from each of 2 wells and transferred to a flexible ELISA assay plate (Falcon). The plate was scanned spectrophotometrically at 492 nm within 30 min.

Test [2] addresses T1, ELAM-1. The description is as above. The conditions noted are these: 0.47 μg/ml; Control +IL-1β 0.782. In kind it is cell-based.
Where [3] appears, read: 1.87 μg/ml, Control +IL-1β 0.725.
Where [4] appears, read: 3.75 μg/ml, Control +IL-1β 0.698.
Where [5] appears, read: 7.5 μg/ml, Control +IL-1β 0.658.

In the case of `CC(=O)N[C@H]1[C@H]([C@H](O)[C@H](O)CO)O[C@@](O[C@H]2[C@@H](O)[C@@H](CO)O[C@@H](O[C@H]3[C@H](O[C@@H]4O[C@@H](C)[C@@H](O)[C@@H](O)[C@@H]4O)[C@@H](CO)OC(O)[C@@H]3NC(C)=O)[C@@H]2O)(C(=O)O)C[C@@H]1O` (stereo partly drawn) [SLe^a, NeuAcα2,3Galβ1,3(Fucα1,4)GlcNAcβ1--], in the test with selectin receptors, the “recognition by selectin receptors” value is reported as “recognized by selectin receptors”.
With “NeuAcα2,3Galβ1,4(Fucα1,3) GlcNAcβ1,3Galβ1,4Glcβ1,1Ceramide [(2,3) SLe^x]”, the “Mean absorbance at 492 nm (bound neutrophils)” value came out at 0.580 at ELAM-1 [1] (setting [3]); 0.483 at ELAM-1 [1] (setting [4]); 0.359 at ELAM-1 [1] (setting [5]); 0.270 on ELAM-1 [1] (15 μg/ml, Control +IL-1β 0.740); 0.156 at ELAM-1 [1] (20 μg/ml, Control +IL-1β 0.657); 0.642 at ELAM-1 [2]. Moreover, at ELAM-1 [1], the “inhibition of neutrophil adhesion to activated endothelium” value was “inhibit neutrophil adhesion to activated endothelium”.
Regarding “NeuAcα2,6Galβ1,4(fucα1,3)GlcNacβ1,3Galβ1,4Glcβ1,1Ceramide [(2,6) SLe^x, reference compound]”, the “Mean absorbance at 492 nm (bound neutrophils)” value worked out at 0.690 on ELAM-1 [1] (setting [3]); 0.655 at ELAM-1 [1] (setting [4]); 0.602 at ELAM-1 [1] (setting [5]); 0.636 on ELAM-1 [1] (15 μg/ml, Control +IL-1β 0.740); 0.663 at ELAM-1 [1] (20 μg/ml, Control +IL-1β 0.657); 0.695 on ELAM-1 [2]. Besides, the “inhibition of neutrophil adhesion to activated endothelium” value at ELAM-1 [1] is “not”.
